Measured values from patent US20230165766A1, “DISPERSANT OR DISPERSION MEDIA COMPOSITION COMPRISING 2,3-BUTANEDIOL, AND COSMETIC COMPOSITION COMPRISING SAME” (GS CALTEX CORPORATION, priority 2020, published 2023).

Key:
[1] = Dispersibility of vitamin C in P/O emulsion under heating condition; assay type: physicochemical; details: vitamin C-containing formulations
Description: Vitamin C is a water-soluble substance that dissolves well in water. […] Therefore, in this experiment, vitamin C was applied to a polyol in oil (P/O) formulation as an anhydrous formulation, and an ivory-colored cream was prepared to evaluate dispersibility. It is more important to produce a stable cosmetic without discoloration, odor change, or phase separation rather than the problem of precipitation regarding vitamin C. Thus, factors for evaluating the dispersing power were set as soft spreadability, application uniformity, and emulsion stability. 1 part by weight of […] JC 500B, 1.5 parts by weight of ABIL EM 90, and 2 parts by weight of KF 6017 were added to 100 parts by weight of ELASTOMER BASE to produce an oil-based mixed solution 1. […] Further. 15 parts by weight of ascorbic acid ultra-fine powder was used to prepare a water-based mixed solution 2. Further, 45 parts by weight of KSG-16 was used to prepare an oil-based mixed solution 2. The oil-based mixed solution 1 was heated to 80 to 90° C. while stirring the same. […] The dispersion stability was evaluated as follows: unstable: phase separation between the oil phase and the aqueous phase, discoloration and/or odor change, normal: the oil phase being slightly separated, and stable: no oil phase separation.

[2] = Ceramide dispersion force in solubilized essence formulation and O/W emulsion formulation; assay type: physicochemical
Description: Further, an experiment for evaluating the dispersion force of ceramide was performed by applying the same to each of the solubilized essence formulation and the O/W emulsion formulation.

[3] = Dispersion force of allantoin in solubilized formulation; assay type: physicochemical
Description: 0.02 parts by weight of EDTA-2Na, 2 parts by weight of 1,2-hexanediol, and 0.5 parts by weight of allantoin were added to 100 parts by weight of purified water to prepare a water-based mixed solution. On the other hand, 0.1 parts by weight of fragrance, 0.3 parts by weight of PEG-60 hydrogenated castor oil, 5 parts by weight of 95% ethanol and 10 parts by weight of the polyol of Present Example 2 were mixed with each other to prepare a solubilized mixed solution. That is, the water-based mixed solution is composed of ultrapure water, EDTA-2Na, 1,2-hexanediol and allantoin, while the solubilized mixed solution is composed of fragrance, PEG-60 hydrogenated castor oil, ethanol and polyol.
The water-based mixed solution was stirred at room temperature for 3 minutes. On the other hand, the solubilized mixed solution was stirred was heating the same to 45 to 50° C. to make the same transparent. Then, the solubilized mixed solution was slowly added to the water-based mixed solution to prepare a mixture which in turn was stirred at room temperature for 2 minutes.
The amount of precipitation of allantoin was measured as follows. […] Then, the precipitated portion was dried for 12 hours, and then a weight thereof was measured. Thus, the amount of precipitation was derived as a difference value between the measured weight and the previously measured weight of the empty container.

[4] = Ceramide dispersion force evaluation (ceramide in polyol); assay type: physicochemical
Description: (§1) Ceramide is an oil-soluble substance that is not soluble in water, precipitates easily during cosmetic production. It is difficult to stabilize ceramide due to gelling during the cosmetic production. In accordance with the present disclosure, the dispersion forces based on types of polyols were compared with each other using the characteristics of ceramide that precipitation thereof occurs well. The stability was evaluated at each of the room temperature, the refrigeration temperature, and the thermostat (45° C.).

[5] = Allantoin dispersion force evaluation (precipitation amount in water); assay type: physicochemical
Description: Precipitation of allantoin occurs well when the temperature is low. When allantoin is precipitated during cosmetic production, it is problematic. In accordance with the present disclosure, using the property of allantoin whose precipitation occurs well, the dispersion force was identified in a short time by measuring an amount of precipitation of allantoin based on each of the polyols under a severe refrigeration condition when the temperature is low, and then the dispersion forces of the various polyols were compared with each other. The stability was evaluated at each of a room temperature, a refrigeration temperature, and thermostat (45° C.). […] In this experiment, the dispersion force of allantoin, that is, the precipitation amount, and a precipitation rate thereof, based on each of the polyols was evaluated. […] The amount of precipitation of allantoin was measured as follows. […] After the 24 hours or 7 days, a supernatant was removed therefrom, and the resulting mixture was dried in a thermostat to entirely remove any remaining supernatant, leaving only the precipitated portion. Then, the precipitated portion was dried for 12 hours, and then a weight thereof was measured. Thus, the amount of precipitation was derived as a difference value between the measured weight and the previously measured weight of the empty container.

[6] = cited from earlier work
[7] = Ceramide dispersion force in solubilized skin formulation; assay type: physicochemical
Description: as §1
0.02 parts by weight of EDTA-2Na and 2 parts by weight of 1,2-hexanediol were added to 100 parts by weight of purified water to prepare a water-based mixed solution 1. On the other hand, 0.1 parts by weight of fragrance, 0.3 parts by weight of PEG-60 hydrogenated castor oil, and 5 parts by weight of DPG (Dipropylene Glycol) were mixed with each other to produce a solubilized mixed solution. Further, a water-based mixed solution 2 was prepared by mixing 10 parts by weight of polyol of Present Example 6 and 1 part by weight of ceramide with each other.
The water-based mixed solution 1 was stirred at room temperature for 2 minutes. On the other hand, the solubilized mixed solution was heated to 45 to 50° C. while stirring the same to make the same transparent, and then was slowly added to the water-based mixed solution under a stirring operation. […]

C[C@H](O)[C@@H](C)O [(2R,3S)-2,3-butanediol]
difference between the properties under the heating/non-heating conditions [1]: no significant difference
dispersion force of ceramide [2]: the dispersion force was excellent
gelling phenomenon [2]: no gelling phenomenon was observed

C[C@H](O)[C@@H](C)O [Present Example 2, (2R,3S)-2,3butanediol]
allantoin dispersion force in the solubilized formulation [3]: excellent

C[C@H](O)[C@@H](C)O [Present Example 5, (2R,3S)-2,3butanediol]
ceramide dispersion force ([4]; 1 part ceramide in 100 parts polyol): ceramide was stably dispersed
state after 4 weeks in thermostat ([4]; thermostat (45° C.), 4 weeks): excellent dispersing power

C[C@H](O)[C@@H](C)O [Present Example 1, (2R,3S)-2,3butanediol]
dispersion force for allantoin [5]: excellent

NC(=O)NC1NC(=O)NC1=O (stereo not drawn) [allantoin]
solubility of allantoin [6]: 0.5 g/100 mL

C[C@H](O)[C@@H](C)O [Present Example 6, (2R,3S)-2,3butanediol]
ceramide dispersion force [7]: ceramide was stably dispersed
